Experimental findings from publication PMC8213057, “Targeting ALK2: An Open Science Approach to Developing Therapeutics for the Treatment of Diffuse Intrinsic Pontine Glioma” (Journal of Medicinal Chemistry, 2020) are described below.

The target of one assay is HPK1/MAP4K1 (Homo sapiens, UniProt Q92918). Particulars: 1 μM; Run 1, Run 2.
The next assay addresses STK38/NDR1 (Homo sapiens, UniProt Q15208). The assay is described as follows: biochemical. Particulars: read-out: % enzyme activity, 1 μM; Run 1, Run 2.
Another assay concerns the target T1, NEK5 (Homo sapiens, UniProt Q6P3R8).
T1 sequence (Q6P3R8 1-708): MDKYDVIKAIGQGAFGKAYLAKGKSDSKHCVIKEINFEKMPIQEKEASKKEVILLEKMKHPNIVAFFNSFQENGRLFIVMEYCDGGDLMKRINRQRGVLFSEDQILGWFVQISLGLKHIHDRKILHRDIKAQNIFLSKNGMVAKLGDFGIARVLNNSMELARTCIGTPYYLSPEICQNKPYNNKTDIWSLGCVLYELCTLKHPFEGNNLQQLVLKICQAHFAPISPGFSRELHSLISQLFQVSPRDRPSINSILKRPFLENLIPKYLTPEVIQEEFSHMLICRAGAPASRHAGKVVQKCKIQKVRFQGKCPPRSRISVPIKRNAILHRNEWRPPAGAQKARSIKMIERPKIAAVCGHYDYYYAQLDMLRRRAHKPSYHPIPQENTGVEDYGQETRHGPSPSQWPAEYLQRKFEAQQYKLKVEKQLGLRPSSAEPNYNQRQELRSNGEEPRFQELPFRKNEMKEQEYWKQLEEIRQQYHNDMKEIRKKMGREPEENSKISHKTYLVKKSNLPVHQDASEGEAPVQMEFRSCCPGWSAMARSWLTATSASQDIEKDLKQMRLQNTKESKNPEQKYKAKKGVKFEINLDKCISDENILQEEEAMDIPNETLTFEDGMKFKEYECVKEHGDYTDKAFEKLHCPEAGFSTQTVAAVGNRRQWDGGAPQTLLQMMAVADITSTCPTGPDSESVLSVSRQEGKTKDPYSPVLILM
To be noted: 1 μM; Run 1, Run 2.

In a further assay the target is AKT3 (Homo sapiens, UniProt Q9Y243). Particulars: 1 μM; Run 1, Run 2.
A further assay addresses T2, ALK4/ACVR1B (Homo sapiens, UniProt P36896).
T2 construct: purchased Reaction Biology Corporation
T2 sequence (P36896 24-505): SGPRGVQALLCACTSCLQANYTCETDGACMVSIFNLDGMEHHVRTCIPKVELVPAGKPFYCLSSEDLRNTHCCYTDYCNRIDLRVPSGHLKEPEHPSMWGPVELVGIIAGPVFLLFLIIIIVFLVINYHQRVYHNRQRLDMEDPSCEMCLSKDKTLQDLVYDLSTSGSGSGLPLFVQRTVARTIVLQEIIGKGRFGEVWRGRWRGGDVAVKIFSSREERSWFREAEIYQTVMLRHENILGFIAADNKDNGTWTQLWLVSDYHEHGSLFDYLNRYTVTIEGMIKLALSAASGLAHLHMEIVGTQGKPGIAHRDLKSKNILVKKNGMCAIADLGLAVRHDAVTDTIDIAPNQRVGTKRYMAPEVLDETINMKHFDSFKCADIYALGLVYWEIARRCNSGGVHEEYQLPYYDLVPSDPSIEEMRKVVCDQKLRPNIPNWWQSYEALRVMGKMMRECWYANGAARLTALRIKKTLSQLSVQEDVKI
The assay is described as follows: 375-member kinase panel. The format is biochemical. Particulars: Run 1, Run 2; for % enzyme activity: 1 μM; for remaining activity at 1 µM: read-out: % enzyme activity, 1 μM.

A further assay addresses T3, IKKa/CHUK (Homo sapiens, UniProt O15111).
T3 sequence (O15111 1-745): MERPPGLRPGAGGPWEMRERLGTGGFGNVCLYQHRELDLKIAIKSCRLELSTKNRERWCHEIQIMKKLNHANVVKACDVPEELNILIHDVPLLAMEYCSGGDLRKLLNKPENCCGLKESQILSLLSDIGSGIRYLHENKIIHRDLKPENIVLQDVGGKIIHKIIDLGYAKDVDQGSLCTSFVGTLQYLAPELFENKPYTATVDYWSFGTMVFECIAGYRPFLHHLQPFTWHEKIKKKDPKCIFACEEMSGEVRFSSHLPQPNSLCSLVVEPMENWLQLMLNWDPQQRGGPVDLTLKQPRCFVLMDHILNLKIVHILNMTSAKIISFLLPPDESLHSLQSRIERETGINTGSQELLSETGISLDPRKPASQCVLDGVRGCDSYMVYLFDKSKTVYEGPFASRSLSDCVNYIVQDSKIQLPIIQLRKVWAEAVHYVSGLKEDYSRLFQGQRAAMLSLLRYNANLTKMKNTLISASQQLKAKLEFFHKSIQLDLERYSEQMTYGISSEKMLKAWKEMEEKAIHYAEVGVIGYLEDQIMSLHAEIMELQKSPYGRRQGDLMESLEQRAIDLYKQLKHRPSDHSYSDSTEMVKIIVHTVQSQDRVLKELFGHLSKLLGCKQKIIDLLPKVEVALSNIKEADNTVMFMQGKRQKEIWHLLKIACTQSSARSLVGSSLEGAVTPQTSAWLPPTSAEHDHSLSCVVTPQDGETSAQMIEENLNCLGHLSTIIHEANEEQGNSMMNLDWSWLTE
Particulars: 1 μM; Run 1, Run 2.

The next assay concerns the target PLK3 (Homo sapiens, UniProt Q9H4B4). Particulars: 1 μM; Run 1, Run 2.
Another assay deals with TTBK2 (Homo sapiens, UniProt Q6IQ55). The assay is described as follows: biochemical. To be noted: read-out: % enzyme activity, 1 μM; Run 1, Run 2.
A further assay concerns the target PDGFRa (Homo sapiens, UniProt P16234). Particulars: 1 μM; Run 1, Run 2.
The next assay has as its target HIPK2 (Homo sapiens, UniProt Q9H2X6). The assay is described as follows: biochemical. Particulars: read-out: % enzyme activity, 1 μM; Run 1, Run 2.
In the next assay the target is ERBB2/HER2 (Homo sapiens, UniProt P04626). The assay is described as follows: biochemical. To be noted: read-out: % enzyme activity, 1 μM; Run 1, Run 2.
For another assay, the target named is GSK3b (Homo sapiens, UniProt P49841). Particulars: 1 μM; Run 1, Run 2.

The structures appear in SMILES notation.

Chain of STK38/NDR1 (Q15208 whole entry): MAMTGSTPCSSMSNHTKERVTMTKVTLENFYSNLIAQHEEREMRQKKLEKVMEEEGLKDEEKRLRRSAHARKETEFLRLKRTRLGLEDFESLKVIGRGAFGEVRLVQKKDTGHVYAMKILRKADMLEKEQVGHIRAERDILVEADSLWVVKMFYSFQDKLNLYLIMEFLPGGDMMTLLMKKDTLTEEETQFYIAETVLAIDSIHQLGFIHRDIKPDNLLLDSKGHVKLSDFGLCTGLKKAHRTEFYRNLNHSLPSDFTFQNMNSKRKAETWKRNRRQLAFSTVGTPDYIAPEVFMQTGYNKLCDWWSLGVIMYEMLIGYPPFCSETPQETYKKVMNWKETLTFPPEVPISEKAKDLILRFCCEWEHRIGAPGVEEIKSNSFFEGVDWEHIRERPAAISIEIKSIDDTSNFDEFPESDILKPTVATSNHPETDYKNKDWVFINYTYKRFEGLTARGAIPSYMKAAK
Chain of ERBB2/HER2 (P04626 23-1255): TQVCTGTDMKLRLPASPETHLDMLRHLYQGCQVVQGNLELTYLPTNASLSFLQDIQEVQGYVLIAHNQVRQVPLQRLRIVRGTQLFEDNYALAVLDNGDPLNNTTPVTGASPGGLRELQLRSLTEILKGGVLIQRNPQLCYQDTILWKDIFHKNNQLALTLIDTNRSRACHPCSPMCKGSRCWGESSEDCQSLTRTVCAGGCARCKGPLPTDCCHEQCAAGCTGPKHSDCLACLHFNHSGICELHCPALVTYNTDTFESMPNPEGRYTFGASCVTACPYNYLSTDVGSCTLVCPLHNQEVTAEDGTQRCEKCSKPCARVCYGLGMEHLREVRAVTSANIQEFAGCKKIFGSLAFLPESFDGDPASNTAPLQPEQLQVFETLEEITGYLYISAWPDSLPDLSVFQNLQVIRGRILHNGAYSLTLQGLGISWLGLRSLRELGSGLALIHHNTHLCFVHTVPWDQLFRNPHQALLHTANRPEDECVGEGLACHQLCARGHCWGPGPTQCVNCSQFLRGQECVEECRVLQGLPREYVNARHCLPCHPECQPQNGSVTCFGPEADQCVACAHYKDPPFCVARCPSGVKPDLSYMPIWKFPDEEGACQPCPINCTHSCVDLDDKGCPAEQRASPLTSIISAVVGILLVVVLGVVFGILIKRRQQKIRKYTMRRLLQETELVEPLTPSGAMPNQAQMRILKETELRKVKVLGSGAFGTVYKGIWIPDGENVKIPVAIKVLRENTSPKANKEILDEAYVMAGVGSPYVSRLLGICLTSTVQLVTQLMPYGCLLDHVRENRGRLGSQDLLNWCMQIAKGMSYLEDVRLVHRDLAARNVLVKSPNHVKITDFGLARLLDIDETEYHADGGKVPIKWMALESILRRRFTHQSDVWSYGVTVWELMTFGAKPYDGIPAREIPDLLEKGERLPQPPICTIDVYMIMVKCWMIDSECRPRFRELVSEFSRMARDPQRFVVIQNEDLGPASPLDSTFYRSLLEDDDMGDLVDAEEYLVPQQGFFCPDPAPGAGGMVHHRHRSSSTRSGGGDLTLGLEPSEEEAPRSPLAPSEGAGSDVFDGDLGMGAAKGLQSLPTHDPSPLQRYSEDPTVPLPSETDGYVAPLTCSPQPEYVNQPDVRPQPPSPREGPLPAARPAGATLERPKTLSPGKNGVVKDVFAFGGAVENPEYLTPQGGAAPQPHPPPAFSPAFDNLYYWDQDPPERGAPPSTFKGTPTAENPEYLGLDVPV
Chain of HPK1/MAP4K1 (Q92918 whole entry): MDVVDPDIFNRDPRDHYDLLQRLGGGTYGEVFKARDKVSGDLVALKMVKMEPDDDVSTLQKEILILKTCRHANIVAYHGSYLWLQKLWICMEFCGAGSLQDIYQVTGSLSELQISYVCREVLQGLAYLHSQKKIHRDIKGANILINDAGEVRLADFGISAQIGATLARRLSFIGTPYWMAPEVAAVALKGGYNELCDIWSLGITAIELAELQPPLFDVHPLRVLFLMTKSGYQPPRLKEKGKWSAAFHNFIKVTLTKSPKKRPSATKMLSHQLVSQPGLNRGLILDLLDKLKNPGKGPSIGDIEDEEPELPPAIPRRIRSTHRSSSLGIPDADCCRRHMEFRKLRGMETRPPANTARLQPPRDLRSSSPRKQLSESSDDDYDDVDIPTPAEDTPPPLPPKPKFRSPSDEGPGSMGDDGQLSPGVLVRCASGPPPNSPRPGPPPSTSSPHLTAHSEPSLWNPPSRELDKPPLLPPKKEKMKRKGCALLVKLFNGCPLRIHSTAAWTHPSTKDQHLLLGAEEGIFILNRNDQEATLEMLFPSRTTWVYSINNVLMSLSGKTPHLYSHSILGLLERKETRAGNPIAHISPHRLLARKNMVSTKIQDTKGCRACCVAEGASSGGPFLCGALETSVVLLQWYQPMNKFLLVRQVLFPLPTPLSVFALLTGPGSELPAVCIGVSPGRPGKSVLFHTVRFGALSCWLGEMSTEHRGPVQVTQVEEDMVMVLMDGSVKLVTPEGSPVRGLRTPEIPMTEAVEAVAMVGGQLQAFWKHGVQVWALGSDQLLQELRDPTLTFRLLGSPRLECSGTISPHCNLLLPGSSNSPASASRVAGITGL
Chain of TTBK2 (Q6IQ55 whole entry): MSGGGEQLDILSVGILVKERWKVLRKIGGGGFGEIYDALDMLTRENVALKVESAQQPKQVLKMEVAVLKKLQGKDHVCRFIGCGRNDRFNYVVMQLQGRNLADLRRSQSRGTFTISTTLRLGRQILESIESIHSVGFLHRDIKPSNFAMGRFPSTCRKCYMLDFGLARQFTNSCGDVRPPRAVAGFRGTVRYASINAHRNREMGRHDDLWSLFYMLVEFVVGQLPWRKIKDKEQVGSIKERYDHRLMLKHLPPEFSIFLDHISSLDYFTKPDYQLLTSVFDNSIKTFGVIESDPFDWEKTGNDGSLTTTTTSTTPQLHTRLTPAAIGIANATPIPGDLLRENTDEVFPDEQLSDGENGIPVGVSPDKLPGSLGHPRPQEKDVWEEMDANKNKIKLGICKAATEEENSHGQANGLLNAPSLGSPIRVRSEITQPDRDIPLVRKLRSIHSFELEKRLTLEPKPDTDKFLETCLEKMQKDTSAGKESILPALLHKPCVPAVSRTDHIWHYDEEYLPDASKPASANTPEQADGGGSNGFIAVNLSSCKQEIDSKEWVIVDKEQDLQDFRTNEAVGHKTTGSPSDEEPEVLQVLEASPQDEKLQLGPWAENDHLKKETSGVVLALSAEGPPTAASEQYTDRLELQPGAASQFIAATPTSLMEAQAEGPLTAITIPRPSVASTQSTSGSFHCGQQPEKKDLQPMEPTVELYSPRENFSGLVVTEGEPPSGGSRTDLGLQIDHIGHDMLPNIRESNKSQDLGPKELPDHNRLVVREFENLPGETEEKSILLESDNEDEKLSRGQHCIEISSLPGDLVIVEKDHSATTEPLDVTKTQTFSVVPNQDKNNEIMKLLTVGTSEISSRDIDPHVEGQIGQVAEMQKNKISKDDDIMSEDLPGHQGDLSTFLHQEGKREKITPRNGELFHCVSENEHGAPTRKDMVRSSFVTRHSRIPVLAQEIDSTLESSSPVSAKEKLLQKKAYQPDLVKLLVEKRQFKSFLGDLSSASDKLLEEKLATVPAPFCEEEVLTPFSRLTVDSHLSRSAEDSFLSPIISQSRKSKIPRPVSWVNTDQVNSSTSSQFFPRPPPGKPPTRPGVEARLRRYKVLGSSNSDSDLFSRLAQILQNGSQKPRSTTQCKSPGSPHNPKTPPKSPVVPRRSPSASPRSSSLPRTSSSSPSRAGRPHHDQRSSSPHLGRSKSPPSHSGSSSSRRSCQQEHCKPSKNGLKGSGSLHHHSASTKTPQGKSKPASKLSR
Chain of PDGFRa (P16234 24-1089): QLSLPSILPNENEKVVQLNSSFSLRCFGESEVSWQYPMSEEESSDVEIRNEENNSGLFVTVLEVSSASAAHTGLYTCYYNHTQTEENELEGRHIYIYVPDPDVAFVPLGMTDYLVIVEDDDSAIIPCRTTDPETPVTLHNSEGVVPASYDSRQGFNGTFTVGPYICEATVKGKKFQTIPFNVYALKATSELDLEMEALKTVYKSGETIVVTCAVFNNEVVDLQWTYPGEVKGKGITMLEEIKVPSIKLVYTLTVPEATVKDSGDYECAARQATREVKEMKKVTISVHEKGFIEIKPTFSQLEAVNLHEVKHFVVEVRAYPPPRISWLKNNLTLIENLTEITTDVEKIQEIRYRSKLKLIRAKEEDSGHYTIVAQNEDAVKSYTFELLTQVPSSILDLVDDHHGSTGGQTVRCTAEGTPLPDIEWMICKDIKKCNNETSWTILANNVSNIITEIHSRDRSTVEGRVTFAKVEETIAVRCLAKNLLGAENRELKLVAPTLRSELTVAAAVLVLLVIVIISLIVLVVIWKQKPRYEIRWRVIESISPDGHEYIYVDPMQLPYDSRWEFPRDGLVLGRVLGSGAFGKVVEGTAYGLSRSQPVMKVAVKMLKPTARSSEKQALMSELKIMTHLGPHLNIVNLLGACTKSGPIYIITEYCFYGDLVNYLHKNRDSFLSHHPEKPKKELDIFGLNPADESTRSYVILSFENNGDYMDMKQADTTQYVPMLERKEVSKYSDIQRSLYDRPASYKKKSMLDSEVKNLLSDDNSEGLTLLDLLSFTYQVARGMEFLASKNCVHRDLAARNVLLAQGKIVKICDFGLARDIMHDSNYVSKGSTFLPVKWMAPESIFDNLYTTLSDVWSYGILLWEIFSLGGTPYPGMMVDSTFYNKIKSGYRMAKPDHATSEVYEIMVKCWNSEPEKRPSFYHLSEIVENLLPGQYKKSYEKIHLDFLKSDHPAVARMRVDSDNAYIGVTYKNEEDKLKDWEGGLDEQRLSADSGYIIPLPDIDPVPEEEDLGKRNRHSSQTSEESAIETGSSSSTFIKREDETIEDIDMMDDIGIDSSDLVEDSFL

With `COc1cc(-c2cncc(-c3ccc(N4C[C@@H](C)N(C)[C@@H](C)C4)cc3)c2C)cc(F)c1C(N)=O` [Compound 26c, 2-Fluoro-6-methoxy-4-(4-methyl-5-(4-((3R,5S)-3,4,5-trimethylpiperazin-1-yl)phenyl)pyridin-3-yl)benzamide], the “% enzyme activity” value on HPK1/MAP4K1 is recorded as 74.31%; on NEK5, 93.10%; at AKT3, 98.56%; at ALK4/ACVR1B it was 81.71%; on IKKa/CHUK, 85.96%; on PLK3, 94.47%. Besides, the “% enzyme activity” value on PDGFRa was found to be 81.08%; on GSK3b, 88.83%. For the same compound, the remaining activity at 1 µM at STK38/NDR1 was 96.7%; on ALK4/ACVR1B it was 82.4%; on TTBK2, 97.8%; at HIPK2, 103%; at ERBB2/HER2, 96.8%.
`COc1cc(-c2cncc(-c3ccc(N4CCN(C)CC4)cc3)c2C)cc(F)c1C(N)=O` [Compound 26a, 2-Fluoro-6-methoxy-4-(4-methyl-5-(4-(4-methylpiperazin-1-yl)phenyl)pyridin-3-yl)benzamide]: the “% enzyme activity” value at HPK1/MAP4K1 turned out to be 57.53%; on NEK5, 97.51%; at AKT3, 94.73%; on ALK4/ACVR1B it was 68.79%; at IKKa/CHUK it was 82.74%; at PLK3, 93.70%. The “% enzyme activity” value came to 81.22% at PDGFRa and 84.98% at GSK3b. Also, the remaining activity at 1 µM on STK38/NDR1 amounted to 91.9%; at ALK4/ACVR1B it was 68.8%; on TTBK2, 97.1%; on HIPK2 it was 99.8%; on ERBB2/HER2, 89.7%.
